Here are results for one molecule from patent US20220257626A1, “TREATMENT COMPRISING SGLT INHIBITORS” (Novartis AG, priority 2019, published 2022).

Common to all, as to type: in vivo, human
A short description of series [1]: Phase 2 dose range finding study in obese patients (CLIK066B2201). The settings on record: 30 mg QD; expected. The procedure: A dose of 30 mg QD is expected to achieve approximately 70% of maximum observed efficacy (using weight loss as a downstream marker for efficacy; CLIK066B2201). Licogliflozin is currently being tested as 30 mg and 150 mg QD monotherapy in NASH (CLIK066X2204). […] To minimize the risk of GI adverse effects of the SGLT1 inhibition in the gut such as diarrhea, licogliflozin will administered in the evening.

Series [2] is described as follows: Placebo-controlled, randomized Phase 2a study in patients with NASH (CLIK066X2204, NCT03205150), interim analysis. Conditions: for patients reporting diarrhea (most common adverse event): 12 weeks, placebo 38.9%. The procedure: Method: Patients with histologically confirmed NASH (F1-F3) or phenotypic NASH (BMI≥27 kg/m^2 in non-Asians or ≥23 kg/m^2 in Asians, ALT≥50 (males) or ≥35 (females) and type 2 diabetes (T2DM)) received daily oral licogliflozin at 150 mg, 30 mg or placebo in a 2:2:1 ratio for 12 weeks (NCT03205150). The primary endpoint is the effect on ALT level after 12 weeks of treatment. Secondary endpoints include improvement in body weight, liver fat content and AST, amongst others. The study size is 110 of which 77 have completed (placebo (n=18); licogliflozin 30 mg (n=25) and licogliflozin 150 mg (n=34)) and are included in the interim analysis.

Series [3] in a line: Randomized, double-blind, placebo controlled dose finding study in Japanese patients with obesity disease. The procedure: This study was a randomized, double-blind, placebo controlled, dose finding study to evaluate the effect of licogliflozin (2.5, 10, 25 and 50 mg qd) in 126 Japanese patients with obesity disease. The primary objective was to examine the dose-response relationship of licogliflozin treatment in body weight reduction relative to placebo at 12 weeks. The secondary objectives included assessment of responder rates, change in parameters related to complications, visceral and subcutaneous fat area, and safety through 12 weeks of treatment.

Molecules are shown by their SMILES.

For the molecule `CCc1ccc([C@@H]2O[C@H](CO)[C@@H](O)[C@H](O)[C@H]2O)cc1Cc1ccc2c(c1)OCCO2` [licogliflozin, (2S,3R,4R,5S,6R)-2-(3-((2,3-dihydrobenzo[b][1,4]dioxin-6-yl)methyl)-4-ethylphenyl)-6-(hydroxymethyl)tetrahydro-2H-pyran-3,4,5-triol], the “share of maximum observed efficacy (weight loss as downstream marker)” value in series [1] is given as “approximately 70%”. The “patients reporting diarrhea (most common adverse event)” value is reported as 40% in series [2] (30 mg) and 76.5% in series [2] (150 mg). Further, the “reduction of ALT and liver fat (interim analysis)” value in series [2] (150 mg QD treatment group) is given as “promising reduction”. For the same molecule, the “incidence of gastrointestinal events (mainly diarrhea)” value in series [2] (150 mg QD treatment group, interim analysis) is on record as “significant incidence”. In addition, the safety and tolerability result in series [3] (2.5, 10, 25 and 50 mg qd over 12 weeks) is “safe and well tolerated”. For the same molecule, the ketoacidosis entry in series [3] (2.5, 10, 25 and 50 mg qd, 12 weeks) is “no ketoacidosis”. The “patients who achieved reduction of ≥3% in body weight” value in series [3] (10, 25 and 50 mg qd dose groups, placebo 7.1%, p≤0.002 for all) is on record as not below 50%.
